Experimental data from patent US10758534B2 (Vertex Pharmaceuticals Incorporated, priority 2014, dated 2020).

Target: T1, F508del (Homo sapiens, UniProt P13569, DEL508-508)
T1 construct: expressed in transfected cells
Assay: Protocol 2: FRET membrane potential optical assay (VIPR), identification of correction compounds
Assay type: cell-based
Conditions: F508del CFTR modulator activity; compounds of Table 1
In short: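 FRET read-out (CC2-DMPE donor, DiSBAC2(3) voltage-sensitive acceptor) of membrane depolarization on VIPR II. Corrector candidates incubated 16 hrs at 37° C. with NIH3T3 cells expressing F508del; temperature correction at 27° C. as positive control; stimulation by 10 μM forskolin, 20 μM genistein, chloride-free gluconate bath.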

T1 sequence (P13569 with tags, fused parts or gaps DEL508-508): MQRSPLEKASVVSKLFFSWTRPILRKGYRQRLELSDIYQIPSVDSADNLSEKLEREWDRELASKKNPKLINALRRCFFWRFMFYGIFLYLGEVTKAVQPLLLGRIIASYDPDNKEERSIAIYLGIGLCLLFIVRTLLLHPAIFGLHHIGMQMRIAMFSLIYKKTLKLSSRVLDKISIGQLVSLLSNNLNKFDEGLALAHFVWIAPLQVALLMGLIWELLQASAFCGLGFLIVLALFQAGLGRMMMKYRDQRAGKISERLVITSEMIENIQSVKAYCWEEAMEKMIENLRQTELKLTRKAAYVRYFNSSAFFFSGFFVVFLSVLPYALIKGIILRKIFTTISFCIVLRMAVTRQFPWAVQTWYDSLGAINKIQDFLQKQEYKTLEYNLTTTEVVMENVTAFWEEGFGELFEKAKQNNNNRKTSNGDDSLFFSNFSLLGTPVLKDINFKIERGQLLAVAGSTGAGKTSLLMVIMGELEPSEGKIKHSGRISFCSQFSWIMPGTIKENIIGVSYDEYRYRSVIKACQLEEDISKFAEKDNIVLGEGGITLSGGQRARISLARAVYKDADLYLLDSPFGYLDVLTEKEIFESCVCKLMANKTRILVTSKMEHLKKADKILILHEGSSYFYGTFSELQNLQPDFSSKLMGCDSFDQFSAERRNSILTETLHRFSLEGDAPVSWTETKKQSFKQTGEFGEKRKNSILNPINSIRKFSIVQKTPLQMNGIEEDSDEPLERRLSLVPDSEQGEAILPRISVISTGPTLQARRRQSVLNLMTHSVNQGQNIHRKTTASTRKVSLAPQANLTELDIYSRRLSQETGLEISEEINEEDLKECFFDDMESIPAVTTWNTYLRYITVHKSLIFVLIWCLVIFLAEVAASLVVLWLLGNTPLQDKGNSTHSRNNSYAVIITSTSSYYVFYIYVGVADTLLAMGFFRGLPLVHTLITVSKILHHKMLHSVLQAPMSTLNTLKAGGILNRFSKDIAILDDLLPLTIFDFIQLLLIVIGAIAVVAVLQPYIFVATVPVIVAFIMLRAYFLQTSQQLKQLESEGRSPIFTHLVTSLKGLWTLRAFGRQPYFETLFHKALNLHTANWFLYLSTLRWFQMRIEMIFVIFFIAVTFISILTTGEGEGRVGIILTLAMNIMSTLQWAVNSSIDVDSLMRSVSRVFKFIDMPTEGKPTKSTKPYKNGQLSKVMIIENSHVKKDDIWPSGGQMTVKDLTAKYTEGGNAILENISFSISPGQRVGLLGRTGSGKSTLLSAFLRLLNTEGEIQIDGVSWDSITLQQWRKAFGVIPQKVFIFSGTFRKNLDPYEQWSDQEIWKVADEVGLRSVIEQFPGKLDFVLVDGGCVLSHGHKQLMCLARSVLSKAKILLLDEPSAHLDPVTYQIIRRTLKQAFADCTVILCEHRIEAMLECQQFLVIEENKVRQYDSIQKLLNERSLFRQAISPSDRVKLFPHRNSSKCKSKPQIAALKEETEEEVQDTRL

Compound | EC30
CC(C)COc1cc(F)cc(-c2ccc(C(=O)NS(=O)(=O)c3cccc(N)n3)c(N3CC(C)CC34CCC4)n2)c1 (single isomer, unassigned) [Compound 2552, N-[(6-amino-2-pyridyl)sulfonyl]-6-(3-fluoro-5-isobutoxy-phenyl)-2-(6-methyl-8-azaspiro[3.4]octa N-8-yl)pyridine-3-carboxamide] | +++ (“+++” means <3 uM)

Same assay, conditions: F508del CFTR modulator activity; compounds of Table 1; read-out: EC30

Compound | EC30 [nM]
C[C@@H]1CN(c2ncccc2C(=O)NS(=O)(=O)N2CC[C@@H](NCCCc3ccc(Cl)cc3)C2)C(C)(C)C1 [Compound 2710] | 3000 to 10000
Cc1ccc(OCc2ccccc2)cc1-c1cnc(N2CC(C)CC2(C)C)c(C(=O)NS(=O)(=O)c2cccc(N)n2)c1 (stereo not drawn) [Compound 2588, N-[(6-amino-2-pyridyl)sulfonyl]-5-(5-benzyloxy-2-methyl-phenyl)-2-(2,2,4-trimethylpyrrolidin-1-yl)pyridine-3-carboxamide] | < 3000
C[C@@H]1CN(c2nc(C3CCCOC3)ccc2C(=O)NS(=O)(=O)c2cccnc2N)C(C)(C)C1 (stereo partly drawn) [Compound 2311, N-[(2-amino-3-pyridyl)sulfonyl]-6-tetrahydropyran-3-yl-2-[(4S)-2,2,4-trimethylpyrrolidin-1-yl]pyridine-3-carboxamide] | < 3000
CC(C)Cc1ccn(-c2ccc(C(=O)NS(=O)(=O)c3cccnc3N)c(N3C[C@@H](C)CC3(C)C)n2)n1 [Compound 2036, N-[(2-amino-3-pyridyl)sulfonyl]-6-(3-isobutylpyrazol-1-yl)-2-[(4S)-2,2,4-trimethylpyrrolidin-1-yl]pyridine-3-carboxamide] | < 3000
Cc1ccc(O)c(-c2ccc(C(=O)NS(=O)(=O)c3ccc[nH]c3=O)c(N3C[C@@H](C)CC3(C)C)n2)c1 [Compound 2174, 6-(2-hydroxy-5-methyl-phenyl)-N-[(2-oxo-1H-pyridin-3-yl)sulfonyl]-2-[(4S)-2,2,4-trimethylpyrrolidin-1-yl]pyridine-3-carboxamide] | 3000 to 10000
COc1c(F)cccc1-c1ccc(C(=O)NS(=O)(=O)c2cccnc2N)c(N2C[C@@H](C)CC2(C)C)n1 [Compound 2355, N-[(2-amino-3-pyridyl)sulfonyl]-6-(3-fluoro-2-methoxy-phenyl)-2-[(4S)-2,2,4-trimethylpyrrolidin-1-yl]pyridine-3-carboxamide] | < 3000
CC1CN(c2ncccc2C(=O)NS(=O)(=O)c2cccc(OCc3c(Cl)cccc3Cl)n2)C(C)(C)C1 (stereo not drawn) [Compound 2390, N—[[6-[(2,6-dichlorophenyl)methoxy]-2-pyridyl]sulfonyl]-2-(2,2,4-trimethylpyrrolidin-1-yl)pyridine-3-carboxamide] | < 3000
Cc1cc(C(=O)c2ccccc2)cc(C)c1Oc1nc(-c2cc(F)cc(OCC(C)C)c2)ccc1C(=O)NS(=O)(=O)c1cccc(N)n1 [Compound 2669, N-[(6-amino-2-pyridyl)sulfonyl]-2-(4-benzoyl-2,6-dimethyl-phenoxy)-6-(3-fluoro-5-isobutoxy-phenyl)pyridine-3-carboxamide] | < 3000
CC1CN(c2ncccc2C(=O)NS(=O)(=O)c2cccc(OCCC3CCCC3)n2)C(C)(C)C1 (stereo not drawn) [Compound 2630, N—[[6-(2-cyclopentylethoxy)-2-pyridyl]sulfonyl]-2-(2,2,4-trimethylpyrrolidin-1-yl)pyridine-3-carboxamide] | < 3000
CC1CN(c2ncccc2C(=O)NS(=O)(=O)c2cccc(N3CCCCC3C)n2)C(C)(C)C1 (stereo not drawn) [Compound 2747] | < 3000
C[C@@H]1CN(c2nc(O[C@H]3CCOC3)c(F)cc2C(=O)NS(=O)(=O)c2cccc(N)n2)C(C)(C)C1 [Compound 2056, N-[(6-amino-2-pyridyl)sulfonyl]-5-fluoro-6-[(3S)-tetrahydrofuran-3-yl]oxy-2-[(4S)-2,2,4-trimethylpyrrolidin-1-yl]pyridine-3-carboxamide] | 3000 to 10000

Same assay, conditions: Table 3; compounds of Table 1 as modulators of CFTR activity; protocol not stated

Compound | EC30
C[C@@H]1CC[C@H](C)N1c1nc(-c2cncc(OC3CCCC3)c2)ccc1C(=O)NS(=O)(=O)c1cccc(N)n1 [Compound 495, N-[(6-amino-2-pyridyl)sulfonyl]-6-[5-(cyclopentoxy)-3-pyridyl]-2-[(2S,5R)-2,5-dimethylpyrrolidin-1-yl]pyridine-3-carboxamide] | ++ (“++” means between 3 uM and 10 uM)
CCCn1cc(-c2ccc(C(=O)NS(=O)(=O)c3cccc(N)n3)c(Oc3c(C)cc(C)cc3C)n2)cn1 [Compound 469, N-[(6-amino-2-pyridyl)sulfonyl]-6-(1-propylpyrazol-4-yl)-2-(2,4,6-trimethylphenoxy)pyridine-3-carboxamide] | ++ (“++” means between 3 uM and 10 uM)
Cc1cc(C)c(Oc2nc3c(C)cccc3cc2C(=O)NS(=O)(=O)c2cccc(N)n2)c(C)c1 [Compound 70, N-[(6-amino-2-pyridyl)sulfonyl]-8-methyl-2-(2,4,6-trimethylphenoxy)quinoline-3-carboxamide] | +++ (“+++” means <3 uM)
CC(C)COc1ccc(F)c(-c2ccc(C(=O)NS(=O)(=O)c3ccn[nH]3)c(N3[C@H](C)CC[C@@H]3C)n2)c1 [Compound 681, 2-[(2S,5R)-2,5-dimethylpyrrolidin-1-yl]-6-(2-fluoro-5-isobutoxy-phenyl)-N-(1H-pyrazol-5-ylsulfonyl)pyridine-3-carboxamide] | +++ (“+++” means <3 uM)
CC1CN(c2nc(-c3ccc(OC(C)C)nc3)ccc2C(=O)NS(=O)(=O)c2cccc(N)n2)CC(C)(C)C1 (stereo not drawn) [Compound 520, N-[(6-amino-2-pyridyl)sulfonyl]-6-(6-isopropoxy-3-pyridyl)-2-(3,3,5-trimethyl-1-piperidyl)pyridine-3-carboxamide] | +++ (“+++” means <3 uM)
Cc1cc(C)c(Cn2c(C(=O)NS(=O)(=O)c3ccncc3)cc3ccc(Cl)cc32)c(C)c1 [Compound 24, 6-chloro-N-(4-pyridylsulfonyl)-1-[(2,4,6-trimethylphenyl)methyl]indole-2-carboxamide] | ++ (“++” means between 3 uM and 10 uM)
CC(C)COc1cc(F)cc(-c2ccc(C(=O)NS(=O)(=O)C3CCNC3=O)c(N3CC(C)CC3(C)C)n2)c1 (stereo not drawn) [Compound 466, 6-(3-fluoro-5-isobutoxy-phenyl)-N-(2-oxopyrrolidin-3-yl)sulfonyl-2-(2,2,4-trimethylpyrrolidin-1-yl)pyridine-3-carboxamide] | +++ (“+++” means <3 uM)
COc1ncc(-c2ccc(C(=O)NS(=O)(=O)c3cccc(N)n3)c(Oc3c(C)cc(C)cc3C)n2)c(OC)n1 [Compound 499, N-[(6-amino-2-pyridyl)sulfonyl]-6-(2,4-dimethoxypyrimidin-5-yl)-2-(2,4,6-trimethylphenoxy)pyridine-3-carboxamide] | ++ (“++” means between 3 uM and 10 uM)
CNc1cccc(S(=O)(=O)NC(=O)c2ccc(C(C)(C)C)nc2Oc2c(C)cc(C)cc2C)c1 [Compound 289, 6-tert-butyl-N-[3-(methylamino)phenyl]sulfonyl-2-(2,4,6-trimethylphenoxy)pyridine-3-carboxamide] | +++ (“+++” means <3 uM)
CC1CCN(c2nc(-c3cc(F)cc(OC(C)C)c3)ccc2C(=O)NS(=O)(=O)c2nccnc2N)CC1 [Compound 699, N-(3-aminopyrazin-2-yl)sulfonyl-6-(3-fluoro-5-isopropoxy-phenyl)-2-(4-methyl-1-piperidyl)pyridine-3-carboxamide] | +++ (“+++” means <3 uM)
CCC1(C)CCCN(c2nc(-c3cc(F)cc(OCC(C)C)c3)ccc2C(=O)NS(=O)(=O)c2cccc(N)n2)C1 (stereo not drawn) [Compound 530, N-[(6-amino-2-pyridyl)sulfonyl]-2-(3-ethyl-3-methyl-1-piperidyl)-6-(3-fluoro-5-isobutoxy-phenyl)pyridine-3-carboxamide] | +++ (“+++” means <3 uM)
Cc1c(Cn2nc(C(C)(C)C)cc2C(=O)NS(=O)(=O)c2ccccc2)cccc1C(F)(F)F [Compound 98, N-(benzenesulfonyl)-5-tert-butyl-2-[[2-methyl-3-(trifluoromethyl)phenyl]methyl]pyrazole-3-carboxamide] | +++ (“+++” means <3 uM)
Cc1ccc(C(F)(F)F)c(Cn2nc(C(C)(C)C)cc2C(=O)NS(=O)(=O)c2ccccc2)c1 [Compound 304, N-(benzenesulfonyl)-5-tert-butyl-2-[[5-methyl-2-(trifluoromethyl)phenyl]methyl]pyrazole-3-carboxamide] | +++ (“+++” means <3 uM)
Cc1cc(C)c(Oc2nn(C(C)(C)C)cc2C(=O)NS(=O)(=O)c2cccc(N)n2)c(C)c1 [Compound 256, N-[(6-amino-2-pyridyl)sulfonyl]-1-tert-butyl-3-(2,4,6-trimethylphenoxy)pyrazole-4-carboxamide] | +++ (“+++” means <3 uM)
Cc1cc(C)c(Oc2nc(-c3cccc4nn(C)cc34)ccc2C(=O)NS(=O)(=O)c2cccc(N)n2)c(C)c1 [Compound 451, N-[(6-amino-2-pyridyl)sulfonyl]-6-(2-methylindazol-4-yl)-2-(2,4,6-trimethylphenoxy)pyridine-3-carboxamide] | ++ (“++” means between 3 uM and 10 uM)
Cc1cc(C)c(Cn2cc(C(C)(C)C)cc2C(=O)NS(=O)(=O)c2cccc(N)c2)c(C)c1 [Compound 195, N-(3-aminophenyl)sulfonyl-4-tert-butyl-1-[(2,4,6-trimethylphenyl)methyl]pyrrole-2-carboxamide] | +++ (“+++” means <3 uM)
COc1ncccc1S(=O)(=O)NC(=O)c1cc2ccccc2n1Cc1c(C)cc(C)cc1C [Compound 18, N-[(2-methoxy-3-pyridyl)sulfonyl]-1-[(2,4,6-trimethylphenyl)methyl]indole-2-carboxamide] | +++ (“+++” means <3 uM)
Cc1cc(C)c(Cn2nc(C(C)(C)C)cc2C(=O)NS(=O)(=O)c2cccc(N(C)C)c2)c(C)c1 [Compound 270, 5-tert-butyl-N-[3-(dimethylamino)phenyl]sulfonyl-2-[(2,4,6-trimethylphenyl)methyl]pyrazole-3-carboxamide] | +++ (“+++” means <3 uM)
